Assay results: the supplement of paper PMC10331698
± gives the standard deviation of the averaged measurements.

How the values were obtained:
Assay in all cases: level (log10 ratio to DMSO vehicle control); higher = higher biomarker level / cell amount than vehicle control
Conditions in all cases: in DMSO
Perfluorobutanoic acid = compound: O=C(O)C(F)(F)C(F)(F)C(F)(F)F [Perfluorobutanoic acid]
Experimental: (§1)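 BioMAP Diversity Plus panel of 12 human primary cell co-culture systems (3C, 4H, LPS, SAg, BT, BF4T, BE3C, CASM3C, HDF3CGF, KF3CT, MyoF, Mphg). Compounds were added 1 h before stimulation and left for 24 h (MyoF 48 h; BT 72 h for soluble read-outs or 6 d for IgG). Biomarkers were read by ELISA, cytotoxicity by SRB, PBMC viability and proliferation by Alamar Blue. Each well value was divided by the mean of 8 DMSO control wells on the same plate and log10 transformed; duplicate blinded samples were tested at 4 concentrations.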

[1] = compound: O=S(=O)(O)C(F)(F)C(F)(F)C(F)(F)C(F)(F)C(F)(F)C(F)(F)F [Perfluorohexanesulfonic acid]
Experimental: as §1

[2] = compound: O=C(O)C(F)(F)C(F)(F)OC(F)(F)F [Perfluoro-3-methoxypropanoic acid]
Experimental: as §1

Perfluoro-1-iodohexane = compound: FC(F)(F)C(F)(F)C(F)(F)C(F)(F)C(F)(F)C(F)(F)I [Perfluoro-1-iodohexane]
Experimental: as §1

[3] = compound: OCC(F)(F)OC(F)(F)C(F)(F)OC(F)(F)CO [1H,1H,8H,8H-Perfluoro-3,6-dioxaoctane-1,8-diol]
Experimental: as §1

[4] = compound: FC(F)C(F)(F)COCC1CO1 [((2,2,3,3-Tetrafluoropropoxy)methyl)oxirane]
Experimental: as §1

[5] = compound: FC(F)(F)C(F)(C(F)(F)F)C(F)(F)C(F)(F)CC1CO1 [3-(Perfluoro-3-methylbutyl)-1,2-propenoxide]
Experimental: as §1

Test System	level (log10) (Perfluorobutanoic acid; 6700 nM)	level (log10) (Perfluorobutanoic acid; 20000 nM)	level (log10) (Perfluorobutanoic acid; 60000 nM)	level (log10) ([1]; 6700 nM)	level (log10) ([1]; 20000 nM)	level (log10) ([1]; 60000 nM)	level (log10) ([2]; 6700 nM)	level (log10) ([2]; 20000 nM)	level (log10) ([2]; 60000 nM)	level (log10) (Perfluoro-1-iodohexane; 6700 nM)	level (log10) (Perfluoro-1-iodohexane; 20000 nM)	level (log10) (Perfluoro-1-iodohexane; 60000 nM)	level (log10) ([3]; 6700 nM)	level (log10) ([3]; 20000 nM)	level (log10) ([3]; 60000 nM)	level (log10) ([4]; 6700 nM)	level (log10) ([4]; 20000 nM)	level (log10) ([4]; 60000 nM)	level (log10) ([5]; 6700 nM)	level (log10) ([5]; 20000 nM)
HDF3CGF:Collagen I	-0.022 ± 0.025	-0.0105 ± 0.023	0.0175 ± 0.07	0.0085 ± 0.015	0.0185 ± 0.015	0.0555 ± 0.067	-0.0095 ± 0.07	-0.0085 ± 0.052	0.058 ± 0.025	-0.0285 ± 0.026	-0.0365 ± 0.0092	-0.045 ± 0.0071	-0.025 ± 0.018	-0.023 ± 0.0042	0.02 ± 0.092	-0.03 ± 0.0042	-0.038 ± 0.013	0.022 ± 0.11	0.003 ± 0.078	-0.0135 ± 0.15
HDF3CGF:CXCL9/MIG	-0.005 ± 0.021	-0.014 ± 0.0028	0.012 ± 0.024	-0.0195 ± 0.0021	-0.017	0.005 ± 0.042	-0.016 ± 0.016	0.0155 ± 0.019	0.019 ± 0.0014	0 ± 0.0028	-0.021 ± 0.0057	-0.0325 ± 0.018	-0.0035 ± 0.015	-0.015 ± 0.037	0.0345 ± 0.067	-0.001 ± 0.013	0.0115 ± 0.023	-0.009 ± 0.028	0.0165 ± 0.012	0.0155 ± 0.016
HDF3CGF:MMP-1	0.0135 ± 0.0064	0.0095 ± 0.0035	0.021 ± 0.027	0.001 ± 0.025	-0.0095 ± 0.03	0.01 ± 0.028	-0.01 ± 0.011	0 ± 0.0071	-0.0035 ± 0.021	0.0065 ± 0.0035	-0.0075 ± 0.029	-0.034 ± 0.017	-0.0055 ± 0.0092	-0.0115 ± 0.023	-0.006	0.0085 ± 0.012	0.0175 ± 0.0064	0.0125 ± 0.023	0.0095 ± 0.012	-0.008 ± 0.024
lMphg:CCL3/MIP-1alpha	-0.0075 ± 0.00071	-0.0115 ± 0.018	0.0355 ± 0.047	-0.006 ± 0.04	0.0055 ± 0.037	0.045 ± 0.034	-0.0175 ± 0.012	-0.053 ± 0.0071	-0.0175 ± 0.019	0.033 ± 0.031	0.023 ± 0.0042	0.0285 ± 0.033	-0.004 ± 0.04	-0.0025 ± 0.022	0.0215 ± 0.029	-0.027 ± 0.059	-0.0385 ± 0.084	-0.0025 ± 0.026	-0.007 ± 0.0042	0.0345 ± 0.023
KF3CT:IL-1alpha	-0.0085 ± 0.012	0.006 ± 0.062	0.019 ± 0.058	0.0065 ± 0.054	-0.014 ± 0.016	-0.015 ± 0.017	0.0455 ± 0.005	0.01 ± 0.0042	0.0225 ± 0.00071	0.008 ± 0.017	0.005 ± 0.017	-0.014 ± 0.017	-0.029 ± 0.045	-0.013 ± 0.014	0.013 ± 0.023	0.006 ± 0.011	-0.0085 ± 0.013	0.0055 ± 0.039	-0.0105 ± 0.013	-0.0065 ± 0.015
3C:CD142/Tissue Factor	0.011 ± 0.0042	0.0085 ± 0.021	0.0035 ± 0.043	0.014 ± 0.023	0.0105 ± 0.025	0.0545 ± 0.011	-0.0125 ± 0.066	-0.049 ± 0.034	-0.0095 ± 0.057	0.0025 ± 0.032	0.0005 ± 0.013	0.0185 ± 0.022	0.0175 ± 0.0064	0.011 ± 0.021	-0.0045 ± 0.0035	-0.0175 ± 0.07	-0.032 ± 0.05	-0.036 ± 0.071	-0.0095 ± 0.044	-0.0125 ± 0.047
lMphg:CD40	-0.049 ± 0.11	-0.025 ± 0.038	0.023 ± 0.068	-0.0205 ± 0.037	0.019 ± 0.011	0.0045 ± 0.011	-0.0295 ± 0.03	-0.0165 ± 0.0021	-0.0225 ± 0.04	-0.011 ± 0.0071	-0.0265 ± 0.0035	-0.0375 ± 0.013	-0.015 ± 0.02	-0.0845 ± 0.0035	-0.0265 ± 0.0035	0.0185 ± 0.061	0.0195 ± 0.029	0.0015 ± 0.011	-0.0105 ± 0.028	-0.021 ± 0.011
HDF3CGF:CXCL11/I-TAC	0.005 ± 0.016	-0.0035 ± 0.011	0.001 ± 0.023	0.01	-0.004 ± 0.0099	-0.004 ± 0.021	-0.001 ± 0.023	0.0165 ± 0.012	0.0105 ± 0.00071	-0.0215 ± 0.011	-0.0305 ± 0.016	-0.183 ± 0.15	0.0085 ± 0.00071	0.0055 ± 0.0064	0.014 ± 0.031	0.027 ± 0.013	-0.0005 ± 0.0035	0.003 ± 0.0057	-0.0005 ± 0.079	-0.0275 ± 0.087
CASM3C:CD87/uPAR	-0.005 ± 0.013	0.0095 ± 0.0021	-0.0085 ± 0.026	0.007 ± 0.0014	0.001 ± 0.0057	0.0065 ± 0.012	-0.021 ± 0.048	-0.0235 ± 0.035	-0.031 ± 0.033	0 ± 0.0085	-0.0105 ± 0.03	0.003 ± 0.021	0.0135 ± 0.00071	-0.0085 ± 0.0078	-0.016 ± 0.0085	-0.029 ± 0.016	-0.0415 ± 0.005	-0.034 ± 0.014	-0.013 ± 0.016	0.002 ± 0.017
HDF3CGF:PAI-I	-0.0025 ± 0.029	0.007 ± 0.054	0.018 ± 0.052	-0.0185 ± 0.019	-0.0145 ± 0.023	-0.004 ± 0.0057	0.0025 ± 0.0092	0.0135 ± 0.026	0.0185 ± 0.012	0.017 ± 0.011	0.005 ± 0.031	-0.041 ± 0.014	-0.013 ± 0.023	-0.017 ± 0.017	-0.0205 ± 0.0092	0.0065 ± 0.016	0.0065 ± 0.0064	0.0035 ± 0.011	-0.003 ± 0.028	0.0125 ± 0.015
KF3CT:uPA	-0.017 ± 0.017	-0.018 ± 0.0099	0.005 ± 0.02	-0.0135 ± 0.015	-0.0105 ± 0.015	-0.002 ± 0.0014	0 ± 0.018	-0.0055 ± 0.012	0.002 ± 0.0085	0.013 ± 0.0042	0.006 ± 0.023	0.007 ± 0.017	-0.0045 ± 0.0092	-0.011 ± 0.0085	0.0005 ± 0.021	0.0015 ± 0.0092	-0.0045 ± 0.032	-0.0005 ± 0.015	-0.0045 ± 0.0021	-0.021 ± 0.017
HDF3CGF:EGFR	-0.004 ± 0.041	-0.0155 ± 0.025	0.012 ± 0.0057	0.0045 ± 0.025	-0.0125 ± 0.039	-0.021 ± 0.04	-0.002 ± 0.0085	0.003 ± 0.0085	0.0165 ± 0.029	0.016 ± 0.05	0.0115 ± 0.043	-0.035 ± 0.14	0.0035 ± 0.013	0.0175 ± 0.025	0.0205 ± 0.054	0.012 ± 0.014	0.0065 ± 0.005	0.029 ± 0.041	-0.015 ± 0.0028	0.0035 ± 0.023
